Data on 18 compounds can be found in US20190292174A1, “MICROBIOCIDAL OXADIAZOLE DERIVATIVES” (SYNGENTA PARTICIPATIONS AG, priority 2016, published 2019).

As a reminder, the inhibition of growth is the drop in the measured response relative to a control, in per cent. A lower inhibition of growth goes with little suppression. In general, melting point refers to the temperature of the solid-liquid transition.

Data set [1] relates to Glomerella lagenarium (Colletotrichum lagenarium). The data set is described as follows: Glomerella lagenarium (Colletotrichum lagenarium) liquid culture / cucumber / preventative (anthracnose). The class given is cell-based. The conditions noted are these: Colletotrichum orbiculare, liquid culture (PDB), growth inhibition measured photometrically 3-4 days after application, compared to untreated control. As for the experimental part: […] fragments or conidia suspensions of a fungus prepared either freshly from liquid cultures of the fungus or from cryogenic storage, are directly mixed into nutrient broth. DMSO solutions of the test compound (max. 10 mg/ml) are diluted with 0.025% Tween20 by a factor of 50 and 10 μl of this solution is pipetted into a microtiter plate (96-well format). The nutrient broth containing the fungal spores/mycelia fragments is then added to give an end concentration of the tested compound. The test plates are incubated in the dark at 24° C., and 96% relative humidity. The inhibition of fungal growth is determined photometrically after 2 to 7 days, depending on the pathosystem, and percent antifungal activity relative to the untreated check is calculated. Conidia of the fungus from cryogenic storage are directly mixed into nutrient broth (PDB potato dextrose broth). Alter placing a (DMSO) solution of test compound into a microtiter plate (96-well format), the nutrient broth containing the fungal spores is added. The test plates are incubated at 24° C., and the inhibition of growth is measured photometrically 3-4 days after application.

The subject of data set [2] is Puccinia recondita f. sp. tritici. Nature of the data set: Puccinia recondita f. sp. tritici / wheat / leaf disc preventative (brown rust). The class given is in vivo. The conditions noted are these: foliar, wheat leaf segments cv. Kanzler, preventative (inoculated 1 day after application), compared to untreated control. The procedure: Leaf disks or leaf segments of various plant species are cut from plants grown in a greenhouse. The cut leaf disks or segments are placed in multiwell plates (24-well format) onto water agar. The leaf disks are sprayed with a test solution before (preventative) or after (curative) inoculation. Compounds to be tested are prepared as DMSO solutions (max. 10 mg/ml) which are diluted to the appropriate concentration with 0.025% Tween20 just before spraying. The inoculated leaf disks or segments are incubated under defined conditions (temperature, relative humidity, light, etc.) according to the respective test system. A single evaluation of disease level is carried out 3 to 14 days after inoculation, depending on the pathosystem. Percent disease control relative to the untreated check leaf disks or segments is then calculated. Wheat leaf segments cv. Kanzler are placed on agar in multiwell plates (24-well format) and sprayed with the formulated test compound diluted in water. The leaf disks are inoculated with a spore suspension of the fungus 1 day after application. The inoculated leaf segments are incubated at 19° C. and 75% rh under a light regime of 12 h light/12 h darkness in a climate cabinet and the activity of a compound is assessed as percent disease control compared to untreated when an appropriate level of disease damage appears in untreated check leaf segments (7-9 days after application).

A further data set concerns Phakopsora pachyrhizi. The data set is described as follows: Phakopsora pachyrhizi / soybean / leaf disc preventative (Asian soybean rust). It counts as in vivo. The note with it: foliar, soybean leaf disks, compared to untreated control. The procedure:
Leaf disks or leaf segments of various plant species are cut from plants grown in a greenhouse. The cut leaf disks or segments are placed in multiwell plates (24-well format) onto water agar. The leaf disks are sprayed with a test solution before (preventative) or after (curative) inoculation. Compounds to be tested are prepared as DMSO solutions (max. 10 mg/ml) which are diluted to the appropriate concentration with 0.025% Tween20 just before spraying. The inoculated leaf disks or segments are incubated under defined conditions (temperature, relative humidity, light, etc.) according to the respective test system. A single evaluation of disease level is carried out 3 to 14 days after inoculation, depending on the pathosystem. Percent disease control relative to the untreated check leaf disks or segments is then calculated. Soybean leaf disks are placed on water agar in multiwell plates (24-well format) and sprayed with the formulated test compound diluted in water. One day after application leaf discs are inoculated by spraying a spore suspension on the lower leaf surface. After an incubation period in a climate cabinet of 24-36 hours in darkness at 20° C., and 75% rh leaf disc are kept at 20° C. with 12 h light/day and 75% rh. The activity of a compound is assessed as percent disease control compared to untreated when an appropriate level of disease damage appears in untreated check leaf disks (12-14 days after application).

In data set [3] the test system is Puccinia recondita f. sp. tritici. The data set is described as follows: Puccinia recondita f. sp. tritici / wheat / leaf disc curative (brown rust). It counts as in vivo. The note with it: foliar, 24 h, wheat leaf segments cv. Kanzler, curative (applied 1 day after inoculation), compared to untreated control, read-out: control of Puccinia recondita f. sp. tritic. The procedure: Leaf disks or leaf segments of various plant species are cut from plants grown in a greenhouse. The cut leaf disks or segments are placed in multiwell plates (24-well format) onto water agar. The leaf disks are sprayed with a test solution before (preventative) or after (curative) inoculation. Compounds to be tested are prepared as DMSO solutions (max. 10 mg/ml) which are diluted to the appropriate concentration with 0.025% Tween20 just before spraying. The inoculated leaf disks or segments are incubated under defined conditions (temperature, relative humidity, light, etc.) according to the respective test system. A single evaluation of disease level is carried out 3 to 14 days after inoculation, depending on the pathosystem. Percent disease control relative to the untreated check leaf disks or segments is then calculated. Wheat leaf segments cv. Kanzler are placed on agar in multiwell plates (24-well format). The leaf segments are inoculated with a spore suspension of the fungus. Plates are stored in darkness at 19° C., and 75% rh. The formulated test compound diluted in water is applied 1 day after inoculation. The leaf segments are incubated at 19° C., and 75% rh under a light regime of 12 h light/12 h darkness in a climate cabinet and the activity of a compound is assessed as percent disease control compared to untreated when an appropriate level of disease damage appears in untreated check leaf segments (6-8 days after application).

The compound `O=C(Nn1ccc2ccccc21)c1ccc(-c2noc(C(F)(F)F)n2)cc1` [Compound 1.11, N-indol-1-yl-4-[5-(trifluoromethyl)-1,2,4-oxadiazol-3-yl]benzamide] yielded a melting point of 188 to 190 °C. The inhibition of growth at 20 ppm in data set [1] is at least 80%. The compound further gave a pest or weed control at 200 ppm in data set [2] of at least 80%.
As to `CN1CCN(NC(=O)c2ccc(-c3noc(C(F)(F)F)n3)cc2)C1=O` [Compound 1.8, N-(3-methyl-2-oxo-imidazolidin-1-yl)-4-[5-(trifluoromethyl)-1,2,4-oxadiazol-3-yl]benzamide], the melting point fell in the range of 238 to 245 °C. Besides, the pest or weed control at 200 ppm in the data set with Phakopsora pachyrhizi is at least 80%. In addition, the pest or weed control at 200 ppm in data set [2] was at least 80%.
Take `O=C(NN1CCCCC1=O)c1c(F)cc(-c2noc(C(F)(F)F)n2)cc1F` [Compound 1.12, 2,6-difluoro-N-(2-oxo-1-piperidyl)-4-[5-(trifluoromethyl)-1,2,4-oxadiazol-3-yl]benzamide]: the melting point lay in the range of 205 to 209 °C. Moreover, the inhibition of growth at 20 ppm in data set [1] is at least 80%.
For the compound `CC(C)(C)NC(=O)CN(C(=O)c1ccc(-c2noc(C(F)(F)F)n2)cc1)N1CCOC1=O` [Compound 1.2, N-[2-(tert-butylamino)-2-oxo-ethyl]-N-(2-oxooxazolidin-3-yl)-4-[5-(trifluoromethyl)-1,2,4-oxadiazol-3-yl]benzamide], the pest or weed control at 200 ppm (in the data set on Phakopsora pachyrhizi; in data set [2]) was at least 80% each time.
`O=C(Cc1ccc(-c2noc(C(F)(F)F)n2)c(F)c1)NN1CCOCC1` [Compound 1.31, 2-[3-fluoro-4-[5-(trifluoromethyl)-1,2,4-oxadiazol-3-yl]phenyl]-N-morpholino-acetamide]: the melting point was in the range of 207 to 209 °C. Besides, in data set [3], the pest or weed control at 200 ppm is at least 80%.
On to `O=C(NN1CCCCC1=O)c1ccc(-c2noc(C(F)(F)F)n2)cc1` [Compound 1.7, N-(2-oxo-1-piperidyl)-4-[5-(trifluoromethyl)-1,2,4-oxadiazol-3-yl]benzamide], for which the melting point lay in the range of 192 to 216 °C. The pest or weed control at 200 ppm with Phakopsora pachyrhizi is at least 80%. This compound also gave a pest or weed control at 200 ppm in data set [2] of at least 80%.
On to `O=C(NNCCO)c1ccc(-c2noc(C(F)(F)F)n2)cc1` [Compound 1.18, N′-(2-hydroxyethyl)-4-[5-(trifluoromethyl)-1,2,4-oxadiazol-3-yl]benzohydrazide], for which the melting point lay within 140 to 149 °C. In data set [1], this compound displayed an inhibition of growth at 20 ppm of at least 80%. Besides, the pest or weed control at 200 ppm in data set [3] is at least 80%. The pest or weed control at 200 ppm in data set [2] was at least 80%.
In turn, `NN(C(=O)c1ccccc1)C(=O)c1ccc(-c2noc(C(F)(F)F)n2)cc1` [Compound 1.5, N-benzoyl-4-[5-(trifluoromethyl)-1,2,4-oxadiazol-3-yl]benzohydrazide] had a melting point of 115.3 to 118.6 °C. Further, the inhibition of growth at 20 ppm in data set [1] was at least 80%. Further, in data set [2], the pest or weed control at 200 ppm is at least 80%.
`O=C(Cc1ccc(-c2noc(C(F)(F)F)n2)cc1F)NN1CCOCC1` [Compound 1.28, 2-[2-fluoro-4-[5-(trifluoromethyl)-1,2,4-oxadiazoi-3-yl]phenyl]-N-morpholino-acetamide] showed a melting point of 201 to 203 °C. The inhibition of growth at 20 ppm in data set [1] was at least 80%. The pest or weed control at 200 ppm in data set [3] was at least 80%.
`CN(C)NC(=O)Cc1ccc(-c2noc(C(F)(F)F)n2)c(F)c1` [Compound 1.30, 2-[3-fluoro-4-[5-(trifluoromethyl)-1,2,4-oxadiazol-3-yl]phenyl]-N′,N′-dimethyl-acetohydrazide] returned a melting point of 163 to 165 °C. This compound yielded an inhibition of growth at 20 ppm in data set [1] of at least 80%. Moreover, the pest or weed control at 200 ppm in data set [3] is at least 80%. The compound also registered a pest or weed control at 200 ppm in data set [2] of at least 80%.
For `O=C1CN(NC(=O)c2ccc(-c3noc(C(F)(F)F)n3)cc2)C(=O)N1` [Compound 1.9], the melting point was in the range of 192 to 196 °C. In the data set with Phakopsora pachyrhizi, this compound gave a pest or weed control at 200 ppm of at least 80%. Also, the pest or weed control at 200 ppm in data set [3] is at least 80%.
In the case of `O=C(NN1CCOC1=O)c1ccc(-c2noc(C(F)(F)F)n2)c(F)c1` [Compound 1.25, 3-fluoro-N-(2-oxooxazolidin-3-yl)-4-[5-(trifluorormethyl)-1,2,4-oxadiazol-3-yl]benzamide], the melting point was in the range of 146 to 166 °C. The same compound came in with an inhibition of growth at 20 ppm in data set [1] of at least 80%. In data set [3], the pest or weed control at 200 ppm was at least 80%. In data set [2], this compound had a pest or weed control at 200 ppm of at least 80%.
`O=C(NN1CCc2ccccc21)c1ccc(-c2noc(C(F)(F)F)n2)cc1` [Compound 1.10, N-indolin-1-yl-4-[5-(trifluoromethyl)-1,2,4-oxadiazol-3-yl]benzamide] came in with a melting point of 167 to 170 °C. The compound further had an inhibition of growth at 20 ppm in data set [1] of at least 80%. The compound further registered a pest or weed control at 200 ppm in data set [2] of at least 80%.
Compound `O=C(Cc1ccc(-c2noc(C(F)(F)F)n2)cc1F)NN1CCCCC1=O` [Compound 1.29, 2-[2-fluoro-4-[5-(trifluoromethyl)-1,2,4-oxadiazol-3-yl]phenyl]-N-(2-oxo-1-piperidyl)acetamide] returned a melting point of 154 to 156 °C. Besides, the inhibition of growth at 20 ppm in data set [1] was at least 80%. Also, the pest or weed control at 200 ppm in data set [3] was at least 80%. In data set [2], the pest or weed control at 200 ppm was at least 80%.
Regarding `Cc1cc(-c2noc(C(F)(F)F)n2)cnc1C(=O)NN1CCCCC1=O` [Compound 1.13, 3-methyl-N-(2-oxo-1-piperidyl)-5-[5-(trifluoromethyl)-1,2,4-oxadiazol-3-yl]pyridine-2-carboxamide], the melting point fell in the range of 159 to 162 °C.
Turning to `O=C(Cc1ccc(-c2noc(C(F)(F)F)n2)c(F)c1)NN1CCCCC1=O` [Compound 1.32, 2-[3-flouro-4-[5-(trifluoromethyl)-1,2,4-oxadiazol-3-yl]phenyl]-N-(2-oxo-1-piperidyl)acetamide], the melting point is 161 to 163 °C. This compound also showed an inhibition of growth at 20 ppm in data set [1] of at least 80%. Further, in data set [3], the pest or weed control at 200 ppm is at least 80%. In addition, the pest or weed control at 200 ppm in data set [2] is at least 80%.
`O=C(NN1CCOCC1)c1ccc(-c2noc(C(F)(F)F)n2)c(F)c1` [Compound 1.16, 3-fluoro-N-morpholino-4-[5-(trifluoromethyl)-1,2,4-oxadiazol-3-yl]benzamide]: the melting point was 140 to 160 °C. The pest or weed control at 200 ppm in the data set with Phakopsora pachyrhizi was at least 80%. The pest or weed control at 200 ppm in data set [2] is at least 80%.
Regarding `CC(=O)NNC(=O)c1ccc(-c2noc(C(F)(F)F)n2)cc1F` [Compound 1.4, N′-acetyl-2-fluoro-4-[5-(trifluoromethyl)-1,2,4-oxadiazol-3-yl]benzohydrazide], the pest or weed control at 200 ppm (with Phakopsora pachyrhizi; in data set [3]; in data set [2]) was at least 80% each time.
